In experiment [1] the target is T1, Mitogen-activated protein kinase 10 (Homo sapiens, UniProt P53779). In words: Inhibition of JNK3 in human PBMCs assessed as decrease in LPS-induced TNFalpha mRNA level after 4 hrs by real-time reverse transcription-PCR analysis.
In experiment [2] the target is T1, Mitogen-activated protein kinase 10. Kind of experiment: Competitive inhibition of JNK3 (unknown origin) in presence of ATP.
Experiment [3] has as its target Mitogen-activated protein kinase 9 (Homo sapiens, UniProt P45984). Kind of experiment: Competitive inhibition of JNK2 (unknown origin) in presence of ATP.
The target of experiment [4] is T1, Mitogen-activated protein kinase 10. Kind of experiment: Binding affinity to N-terminal His6X-tagged human recombinant JNK3 catalytic domain expressed in Escherichia coli BL21 (DE3) by surface plasmon resonance analysis.

Each structure is given as a SMILES string.

T1 sequence (P53779 whole entry): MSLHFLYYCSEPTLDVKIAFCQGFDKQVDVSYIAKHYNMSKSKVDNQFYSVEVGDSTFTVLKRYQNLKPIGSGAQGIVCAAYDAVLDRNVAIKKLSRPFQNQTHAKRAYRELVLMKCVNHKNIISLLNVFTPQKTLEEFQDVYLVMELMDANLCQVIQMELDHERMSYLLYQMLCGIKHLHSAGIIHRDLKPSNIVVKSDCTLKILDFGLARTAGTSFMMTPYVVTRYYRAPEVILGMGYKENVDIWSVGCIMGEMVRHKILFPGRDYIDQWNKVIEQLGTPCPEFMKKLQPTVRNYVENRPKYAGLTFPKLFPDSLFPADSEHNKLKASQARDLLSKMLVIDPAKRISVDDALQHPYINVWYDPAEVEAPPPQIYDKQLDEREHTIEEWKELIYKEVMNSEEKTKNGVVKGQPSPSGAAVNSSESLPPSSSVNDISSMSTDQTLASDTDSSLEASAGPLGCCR
Mitogen-activated protein kinase 9, sequence (P45984 whole entry, the tested form may be a part): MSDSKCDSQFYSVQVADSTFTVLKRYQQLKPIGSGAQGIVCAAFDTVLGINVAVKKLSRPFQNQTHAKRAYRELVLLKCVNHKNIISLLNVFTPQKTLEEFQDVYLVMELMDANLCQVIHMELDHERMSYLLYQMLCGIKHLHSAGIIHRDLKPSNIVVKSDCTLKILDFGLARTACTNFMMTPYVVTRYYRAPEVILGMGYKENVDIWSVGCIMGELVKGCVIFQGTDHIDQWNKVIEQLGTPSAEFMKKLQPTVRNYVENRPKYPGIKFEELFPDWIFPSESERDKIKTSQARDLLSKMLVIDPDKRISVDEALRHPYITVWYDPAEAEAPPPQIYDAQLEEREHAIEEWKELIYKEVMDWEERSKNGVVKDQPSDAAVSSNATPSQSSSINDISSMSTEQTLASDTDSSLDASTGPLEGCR

For the molecule `Oc1c2ccccc2c2c3c(cccc13)N=N2` [SP-600125], in experiment [1], the concentration for half-maximal inhibition (IC50) (commonly the midpoint of a concentration-inhibition curve) was 10 µM and the inhibition entry was “Dose-dependent effect”.

In the case of `Oc1cccc(-c2nc3ccccc3n2-c2ccnc(N[C@@H]3CCCNC3)c2)c1`, the IC50 in experiment [2] is 1.86 µM; in experiment [3] it was 2.18 µM.

Consider `COc1ccc2c(c1)nc(-c1ccc(C)c(Cl)c1)n2-c1ccnc(NC2CCCCC2)c1`, for which, in experiment [4], the dissociation constant (Kd) (usually the constant that tells how readily two partners part at equilibrium) came out at 18.1 µM.
